From paper PMC11219871, “Epigenetic-based differentiation therapy for Acute Myeloid Leukemia” (Nature Communications, 2024)
“And” between values parts separate entries of the source, which are not always exact repeats. Equal values may be shown once. Read-outs that look alike come from different tables or passages of the source.

Experiments:
Format in all cases: cell-based, human
ML-2 [1] = test: Cell proliferation assay: GI50
Procedure: (§1) Cell proliferation was analyzed using the CellTiter 96 Aqueous One Solution Cell Proliferation Assay (Promega, Madison, WI). This is a colorimetric method for determining the number of viable cells in proliferation. For the assay, suspension cells were cultured in triplicate at a density of 1 × 10^6 cells/mL in 96-well plates (100.000 cells/well, 100 µL/well), using only the 60 inner wells to avoid any border effects. […] Then, the cells were incubated with 100 μL/well of medium and 20 μL/well of CellTiter 96 Aqueous One Solution reagent for 1–3 h. […] The background absorbance was measured in wells with only cell line medium and solution reagent. First, the average of the absorbance from the control wells was subtracted from all other absorbance values. Data were calculated as the percentage of total absorbance of treated cells/absorbance of non-treated cells. The GI50 values of the different compounds were determined using non-linear regression plots made with GraphPad Prism v5 software.

HL-60 [2] = test: Cell proliferation assay: GI50; settings: read-out: GI50
Procedure: as §1

MOLM-13 = test: Cell proliferation assay: GI50
Procedure: as §1

MV4-11 = test: Cell proliferation assay: GI50
Procedure: as §1

ML-2 [3] = test: Differentiation-apoptosis assay, CD11b / annexin-V / Sytox Green / myeloid markers flow cytometry; design: Cell viability: concentration or dose not given beside the values
Procedure: Next, the cells were washed twice with phosphate-buffered saline (PBS) and resuspended in 1X Binding Buffer at a concentration of 1 × 10^6 cells/mL. An 8-µL aliquot of APC-CD11b (BD Pharmingen, Franklin Lakes, NJ, USA) and 1 µL of FITC annexin-V (AV) (BD Pharmingen, Franklin Lakes, NJ, USA) antibodies were added and incubated for 15 min at room temperature in the dark. Finally, after the addition of 400 µL of 1X Binding Buffer to each tube, samples were collected on a BD FACSCanto flow cytometer (Becton Dickinson, San Jose, CA, USA) and analyzed using FlowJo software.
For the rest of experiments, the mix of antibodies (2 µL of BV786-CD13, Cat No, 744748 BD; 1 µL of diluted 1:10 antibody of PB-HLADR, Cat No 307633, Biolegend; 5 µL of APCH7-CD14, Cat No 641394, BD) was added to 10 µL of Brilliant Stain Buffer Plus (Becton Dickinson, San Jose, CA, USA). Then, 1 million cells (volume of 250 µL) were added and incubated for 30 min at room temperature in darkness. After 10 min incubation at room temperature with 2 mL of FACSLysing 1X, cells were centrifuged at 540 g for 5 min and washed twice with FACSBuffer. Finally, after centrifugation at 540 g for 5 min cells were resuspended in FACSBuffer.

HL-60 [4] = test: as above; design: Cell viability (%): concentration or dose not given beside the values; settings: for Annexin V (%) Replicate 1 / Annexin V (%) Replicate 2 / Annexin V (%) Replicate 3 / CD11b (%) Replicate 1 / CD11b (%) Replicate 2 / CD11b (%) Replicate 3: HL-60, daily 25% GI50, 48 h
In short: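 HL-60 cells were stained for the myeloid differentiation marker CD11b, with annexin-V and Sytox Green marking apoptosis and cell death. Cells were washed in PBS and resuspended at 1 × 10^6 cells/mL in binding buffer; marker staining of 1 million cells was for 30 min at room temperature in the dark, followed by red-cell lysis. Readout was flow cytometry.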

[5] = ML-2, 48 h, replicates (Fig 4A)
[6] = HL-60, 48 h treatment, replicates 1-3 (Suppl. Fig. 5A)

CC1=C(/C=C/C(C)=C/C=C/C(C)=C/C(=O)O)C(C)(C)CCC1 [ATRA, all-trans retinoic acid, reference compound]
GI50 (ML-2 [1]; Homo sapiens, ML-2, 48 h): > 10000 nM | GI50 (ML-2 [1]; Homo sapiens, ML-2, ML-2, replicates 1-3): > 10000 nM | GI50 (ML-2 [1]; ML-2, replicates 1-3): > 10000 nM | GI50 (HL-60 [2]; HL-60, replicates 1-3): > 10000 nM | GI50 (HL-60 [2]; Homo sapiens, HL-60, 48 h): > 10000 nM | GI50 (HL-60 [2]; Homo sapiens, HL-60, HL-60, replicates 1-3): > 10000 nM | GI50 (MOLM-13; Homo sapiens, MOLM-13, 48 h): > 10000 nM | GI50 (MOLM-13; Homo sapiens, MOLM-13, MOLM-13, replicates 1-3): > 10000 nM | GI50 (MOLM-13; MOLM-13, replicates 1-3): > 10000 nM | GI50 (MV4-11; Homo sapiens, MV4-11, 48 h): > 10000 nM | GI50 (MV4-11; Homo sapiens, MV4-11, MV4-11, replicates 1-3): > 10000 nM | GI50 (MV4-11; MV4-11, replicates 1-3): > 10000 nM | CD11b (%) (ML-2 [3]; ML-2 cell line, replicates 1-3 (Figure 2A)): 5.2% and 4.2% and 6.05% | Annexin V (%) Replicate 1 (HL-60 [4]): 0.34% | Annexin V (%) Replicate 2 (HL-60 [4]): 0.98% | Annexin V (%) Replicate 3 (HL-60 [4]): 0.97% | CD11b (%) Replicate 1 (HL-60 [4]): 10.12% | CD11b (%) Replicate 2 (HL-60 [4]): 15.48% | CD11b (%) Replicate 3 (HL-60 [4]): 12.56% | CD11b (%) (HL-60 [4]; HL-60 cell line, replicates 1-3 (Figure 2A)): 10.3% and 15.8% and 12.06%

Cc1[nH]c2ccccc2c1CCNCc1ccc(/C=C/C(=O)NO)cc1 [Panobinostat, reference compound]
GI50 (ML-2 [1]; Homo sapiens, ML-2, ML-2): 51.6 nM | GI50 (ML-2 [1]; Homo sapiens, ML-2, ML-2, replicates 1-3, nM for Panobistat and Quisinostat): 46.8 nM | GI50 (ML-2 [1]; ML-2, replicates 1-3, nM for Panobistat and Quisinostat): 65.3 nM and 42.7 nM | GI50 (HL-60 [2]; HL-60, replicates 1-3, nM for Panobistat and Quisinostat): 15.6 nM and 19.3 nM | GI50 (HL-60 [2]; Homo sapiens, HL-60, HL-60, replicates 1-3, nM for Panobistat and Quisinostat): 19.1 nM | GI50 (HL-60 [2]; Homo sapiens, HL-60, HL-60): 18 nM | GI50 (MOLM-13; Homo sapiens, MOLM-13, MOLM-13): 32 nM | GI50 (MOLM-13; Homo sapiens, MOLM-13, MOLM-13, replicates 1-3, nM for Panobistat and Quisinostat): 23.2 nM | GI50 (MOLM-13; MOLM-13, replicates 1-3, nM for Panobistat and Quisinostat): 41.5 nM and 31.3 nM | GI50 (MV4-11; Homo sapiens, MV4-11, MV4-11): 13 nM | GI50 (MV4-11; Homo sapiens, MV4-11, MV4-11, replicates 1-3, nM for Panobistat and Quisinostat): 14.5 nM | GI50 (MV4-11; MV4-11, replicates 1-3, nM for Panobistat and Quisinostat): 13.3 nM and 11.2 nM | CD11b (ML-2 [3]; [5]): 36.1% and 27.0% and 28.8% | Cell viability (ML-2 [3]; [5]): 69.0% and 63.1% and 66.5% | CD11b (%) (HL-60 [4]; [6]): 10.8% and 18.5% | Cell viability (%) (HL-60 [4]; [6]): 45.2% and 38.6% and 44.9% | Annexin V (%) Replicate 1 (HL-60 [4]): 20.30% | Annexin V (%) Replicate 2 (HL-60 [4]): 24.90% | Annexin V (%) Replicate 3 (HL-60 [4]): 22.00% | CD11b (%) Replicate 1 (HL-60 [4]): 12.07% | CD11b (%) Replicate 2 (HL-60 [4]): 18.60% | CD11b (%) Replicate 3 (HL-60 [4]): 12.38%
